Each block holds one compound with its values, some of them ahead of it.
Key:
[1] = molecular target: Vascular endothelial growth factor receptor 2 (Homo sapiens) (UniProt P35968); test: Inhibition of KDR (unknown origin) at 0.1 uM relative to control
[2] = tested on: RAF proto-oncogene serine/threonine-protein kinase (Homo sapiens), P04049 [Y340D,Y341D]; test: Inhibition of RAF1 Y340D/Y341D double mutant (unknown origin) at 0.1 uM relative to control
[3] = molecular target: Tyrosine-protein kinase JAK3 (Homo sapiens) (UniProt P52333); test: Inhibition of JAK3 (unknown origin) at 0.1 uM relative to control
[4] = molecular target: Protein kinase C eta type (Homo sapiens) (UniProt P24723); test: Inhibition of PKCeta (unknown origin) at 0.1 uM relative to control
[5] = molecular target: Mitogen-activated protein kinase kinase kinase kinase 2 (Homo sapiens) (UniProt Q12851); test: Inhibition of GCK (unknown origin) at 0.1 uM relative to control
[6] = molecular target: Fibroblast growth factor receptor 1 (Homo sapiens) (UniProt P11362); test: Inhibition of FGFR1 (unknown origin) at 0.1 uM relative to control
[7] = molecular target: Serine/threonine-protein kinase Chk2 (Homo sapiens) (UniProt O96017); test: Inhibition of CHK2 (unknown origin) at 0.1 uM relative to control
[8] = molecular target: TGF-beta receptor type-1 (Homo sapiens) (UniProt P36897); test: Inhibition of TGFBR1 (unknown origin) at 0.1 uM relative to control
[9] = molecular target: LIM domain kinase 1 (Homo sapiens) (UniProt P53667); test: Inhibition of LIMK1 (unknown origin) at 0.1 uM relative to control
[10] = molecular target: Serine/threonine-protein kinase MARK1 (Homo sapiens) (UniProt Q9P0L2); test: Inhibition of MARK1 (unknown origin) at 0.1 uM relative to control
[11] = molecular target: Serine/threonine-protein kinase 26 (Homo sapiens) (UniProt Q9P289); test: Inhibition of MST4 (unknown origin) at 0.1 uM relative to control
[12] = molecular target: Hepatocyte growth factor receptor (Homo sapiens) (UniProt P08581); test: Inhibition of Met (unknown origin) at 0.1 uM relative to control
[13] = molecular target: cAMP-dependent protein kinase (PKA) (Homo sapiens) (UniProt P22694+P17612+P22612); test: Inhibition of PKA (unknown origin) at 0.1 uM relative to control; type: protein assay
[14] = molecular target: Tyrosine-protein kinase Fes/Fps (Homo sapiens) (UniProt P07332); test: Inhibition of Fes (unknown origin) at 0.1 uM relative to control
[15] = molecular target: CDK8/Cyclin C (Homo sapiens) (UniProt P49336+P24863); test: Inhibition of CDK8/CyclinC (unknown origin) at 0.1 uM relative to control; type: protein-complex assay
[16] = molecular target: Phosphorylase b kinase gamma catalytic chain, liver/testis isoform (Homo sapiens) (UniProt P15735); test: Inhibition of PhKgamma2 (unknown origin) at 0.1 uM relative to control
[17] = molecular target: Fibroblast growth factor receptor 4 (Homo sapiens) (UniProt P22455); test: Inhibition of FGFR4 (unknown origin) at 0.1 uM relative to control
[18] = molecular target: Dual specificity mitogen-activated protein kinase kinase 2 (Homo sapiens) (UniProt P36507); test: Inhibition of MEK2 (unknown origin) at 0.1 uM relative to control
[19] = molecular target: MAP kinase-interacting serine/threonine-protein kinase 1 (Homo sapiens) (UniProt Q9BUB5); test: Inhibition of MKNK1 (unknown origin) at 0.1 uM relative to control
[20] = molecular target: Serine/threonine-protein kinase Nek2 (Homo sapiens) (UniProt P51955); test: Inhibition of NEK2 (unknown origin) at 0.1 uM relative to control
[21] = molecular target: Rho-associated protein kinase 2 (Homo sapiens) (UniProt O75116); test: Inhibition of ROCK2 (unknown origin) at 0.1 uM relative to control
[22] = molecular target: Maternal embryonic leucine zipper kinase (Homo sapiens) (UniProt Q14680); test: Inhibition of MELK (unknown origin) at 0.1 uM relative to control
[23] = molecular target: BDNF/NT-3 growth factors receptor (Homo sapiens) (UniProt Q16620); test: Inhibition of TrkB (unknown origin) at 0.1 uM relative to control
[24] = molecular target: Casein kinase I isoform alpha (Homo sapiens) (UniProt P48729); test: Inhibition of CK1alpha1 (unknown origin) at 0.1 uM relative to control
[25] = molecular target: Calcium/calmodulin-dependent protein kinase type II subunit beta (Homo sapiens) (UniProt Q13554); test: Inhibition of CaMKIIbeta (unknown origin) at 0.1 uM relative to control
[26] = molecular target: Serine/threonine-protein kinase Sgk2 (Homo sapiens) (UniProt Q9HBY8); test: Inhibition of SGK2 (unknown origin) at 0.1 uM relative to control
[27] = molecular target: Ephrin type-A receptor 8 (Homo sapiens) (UniProt P29322); test: Inhibition of EphA8 (unknown origin) at 0.1 uM relative to control
[28] = molecular target: Receptor tyrosine-protein kinase erbB-2 (Homo sapiens) (UniProt P04626); test: Inhibition of ErbB2 (unknown origin) at 0.1 uM relative to control
[29] = molecular target: Tyrosine-protein kinase ITK/TSK (Homo sapiens) (UniProt Q08881); test: Inhibition of Itk (unknown origin) at 0.1 uM relative to control
[30] = molecular target: G protein-coupled receptor kinase 3 (Homo sapiens) (UniProt P35626); test: Inhibition of GRK3 (unknown origin) at 0.1 uM relative to control
[31] = molecular target: Tyrosine-protein kinase Yes (Homo sapiens) (UniProt P07947); test: Inhibition of Yes (unknown origin) at 0.1 uM relative to control
[32] = molecular target: Focal adhesion kinase 1 (Homo sapiens) (UniProt Q05397); test: Inhibition of FAK (unknown origin) at 0.1 uM relative to control
[33] = molecular target: Muscle, skeletal receptor tyrosine-protein kinase (Homo sapiens) (UniProt O15146); test: Inhibition of MUSK (unknown origin) at 0.1 uM relative to control
[34] = molecular target: Insulin receptor (Homo sapiens) (UniProt P06213); test: Inhibition of InsR (unknown origin) at 0.1 uM relative to control
[35] = molecular target: cGMP-dependent protein kinase 1 (Homo sapiens) (UniProt Q13976); test: Inhibition of PKG1alpha (unknown origin) at 0.1 uM relative to control
[36] = molecular target: Leukocyte tyrosine kinase receptor (Homo sapiens) (UniProt P29376); test: Inhibition of LTK (unknown origin) at 0.1 uM relative to control
[37] = molecular target: Phosphatidylinositol 4,5-bisphosphate 3-kinase catalytic subunit delta isoform (Homo sapiens) (UniProt O00329); test: Inhibition of PI3Kdelta (unknown origin) at 0.1 uM relative to control
[38] = molecular target: Protein kinase C delta type (Homo sapiens) (UniProt Q05655); test: Inhibition of PKCdelta (unknown origin) at 0.1 uM relative to control
[39] = molecular target: G protein-coupled receptor kinase 6 (Homo sapiens) (UniProt P43250); test: Inhibition of GRK6 (unknown origin) at 0.1 uM relative to control

Mitogen-activated protein kinase kinase kinase kinase 2 (Homo sapiens), sequence (Q12851 whole entry): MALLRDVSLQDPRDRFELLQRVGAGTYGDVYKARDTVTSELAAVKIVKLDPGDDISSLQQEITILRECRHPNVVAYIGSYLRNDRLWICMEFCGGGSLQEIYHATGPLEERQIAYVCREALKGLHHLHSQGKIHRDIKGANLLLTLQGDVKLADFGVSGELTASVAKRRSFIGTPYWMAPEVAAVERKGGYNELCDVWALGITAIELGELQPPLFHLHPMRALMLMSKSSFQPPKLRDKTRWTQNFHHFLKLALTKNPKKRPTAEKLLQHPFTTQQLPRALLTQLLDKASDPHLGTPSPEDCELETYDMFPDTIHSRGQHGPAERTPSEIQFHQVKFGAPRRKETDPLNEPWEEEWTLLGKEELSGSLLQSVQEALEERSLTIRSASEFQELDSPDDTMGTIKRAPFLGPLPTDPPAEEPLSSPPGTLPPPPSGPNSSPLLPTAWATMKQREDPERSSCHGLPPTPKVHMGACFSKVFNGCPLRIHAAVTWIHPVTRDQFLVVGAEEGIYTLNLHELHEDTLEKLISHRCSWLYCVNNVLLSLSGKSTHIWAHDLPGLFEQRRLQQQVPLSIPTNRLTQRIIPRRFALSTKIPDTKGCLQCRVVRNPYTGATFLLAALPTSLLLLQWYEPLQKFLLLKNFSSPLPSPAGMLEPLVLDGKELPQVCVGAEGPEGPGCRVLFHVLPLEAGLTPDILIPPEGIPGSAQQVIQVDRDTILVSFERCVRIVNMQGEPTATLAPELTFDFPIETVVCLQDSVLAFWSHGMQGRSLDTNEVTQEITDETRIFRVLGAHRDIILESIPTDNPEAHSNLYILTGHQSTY
Tyrosine-protein kinase JAK3 (Homo sapiens), sequence (P52333 whole entry): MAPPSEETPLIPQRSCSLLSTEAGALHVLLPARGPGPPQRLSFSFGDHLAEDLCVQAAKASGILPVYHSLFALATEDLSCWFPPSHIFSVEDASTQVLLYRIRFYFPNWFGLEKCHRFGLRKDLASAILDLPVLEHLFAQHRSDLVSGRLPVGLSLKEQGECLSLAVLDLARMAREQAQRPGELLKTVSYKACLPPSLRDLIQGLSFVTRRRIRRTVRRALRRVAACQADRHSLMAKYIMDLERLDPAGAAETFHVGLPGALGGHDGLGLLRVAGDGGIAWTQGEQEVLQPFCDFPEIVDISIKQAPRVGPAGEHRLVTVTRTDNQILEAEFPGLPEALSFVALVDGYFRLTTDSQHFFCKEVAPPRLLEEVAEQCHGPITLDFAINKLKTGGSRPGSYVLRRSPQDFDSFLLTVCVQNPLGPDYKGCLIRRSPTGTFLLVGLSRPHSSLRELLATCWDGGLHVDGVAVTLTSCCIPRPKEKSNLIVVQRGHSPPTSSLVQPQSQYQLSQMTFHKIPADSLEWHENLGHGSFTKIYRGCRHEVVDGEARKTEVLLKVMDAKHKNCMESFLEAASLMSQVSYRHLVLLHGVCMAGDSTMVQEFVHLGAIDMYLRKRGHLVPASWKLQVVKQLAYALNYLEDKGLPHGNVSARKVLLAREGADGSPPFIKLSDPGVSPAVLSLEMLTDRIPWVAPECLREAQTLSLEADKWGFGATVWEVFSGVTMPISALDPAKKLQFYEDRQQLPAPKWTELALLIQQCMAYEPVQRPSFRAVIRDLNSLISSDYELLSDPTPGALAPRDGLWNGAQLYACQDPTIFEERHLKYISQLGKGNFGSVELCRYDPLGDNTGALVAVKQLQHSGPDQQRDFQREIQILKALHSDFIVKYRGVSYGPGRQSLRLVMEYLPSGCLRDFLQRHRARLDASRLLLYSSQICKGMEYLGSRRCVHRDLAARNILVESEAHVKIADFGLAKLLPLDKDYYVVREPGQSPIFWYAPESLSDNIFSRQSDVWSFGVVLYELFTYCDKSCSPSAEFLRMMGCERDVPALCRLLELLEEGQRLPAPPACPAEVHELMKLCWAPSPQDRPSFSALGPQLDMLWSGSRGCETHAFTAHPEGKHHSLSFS
Serine/threonine-protein kinase MARK1 (Homo sapiens), sequence (Q9P0L2 whole entry, looked up): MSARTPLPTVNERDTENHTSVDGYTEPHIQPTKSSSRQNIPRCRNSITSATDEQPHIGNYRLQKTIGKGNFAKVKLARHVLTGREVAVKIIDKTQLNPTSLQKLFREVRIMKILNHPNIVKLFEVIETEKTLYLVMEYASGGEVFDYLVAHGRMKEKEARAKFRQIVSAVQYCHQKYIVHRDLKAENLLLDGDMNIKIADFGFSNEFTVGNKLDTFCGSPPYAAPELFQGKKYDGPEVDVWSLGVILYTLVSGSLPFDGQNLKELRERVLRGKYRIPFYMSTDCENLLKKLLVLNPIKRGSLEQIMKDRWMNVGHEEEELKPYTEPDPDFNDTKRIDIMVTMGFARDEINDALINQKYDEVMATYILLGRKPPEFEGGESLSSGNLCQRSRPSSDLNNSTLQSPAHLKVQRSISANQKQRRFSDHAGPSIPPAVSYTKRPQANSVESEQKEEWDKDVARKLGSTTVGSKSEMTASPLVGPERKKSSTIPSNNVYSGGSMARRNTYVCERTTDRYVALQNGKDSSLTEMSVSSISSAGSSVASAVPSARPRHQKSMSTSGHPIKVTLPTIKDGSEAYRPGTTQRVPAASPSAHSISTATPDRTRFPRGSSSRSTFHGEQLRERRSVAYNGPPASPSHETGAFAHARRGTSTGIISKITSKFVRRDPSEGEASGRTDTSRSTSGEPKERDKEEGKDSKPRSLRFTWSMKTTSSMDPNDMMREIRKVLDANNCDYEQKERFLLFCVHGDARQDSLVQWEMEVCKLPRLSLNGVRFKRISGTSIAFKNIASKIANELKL
RAF proto-oncogene serine/threonine-protein kinase (Homo sapiens), P04049 [Y340D,Y341D], sequence (P04049 whole entry Y340D/Y341D): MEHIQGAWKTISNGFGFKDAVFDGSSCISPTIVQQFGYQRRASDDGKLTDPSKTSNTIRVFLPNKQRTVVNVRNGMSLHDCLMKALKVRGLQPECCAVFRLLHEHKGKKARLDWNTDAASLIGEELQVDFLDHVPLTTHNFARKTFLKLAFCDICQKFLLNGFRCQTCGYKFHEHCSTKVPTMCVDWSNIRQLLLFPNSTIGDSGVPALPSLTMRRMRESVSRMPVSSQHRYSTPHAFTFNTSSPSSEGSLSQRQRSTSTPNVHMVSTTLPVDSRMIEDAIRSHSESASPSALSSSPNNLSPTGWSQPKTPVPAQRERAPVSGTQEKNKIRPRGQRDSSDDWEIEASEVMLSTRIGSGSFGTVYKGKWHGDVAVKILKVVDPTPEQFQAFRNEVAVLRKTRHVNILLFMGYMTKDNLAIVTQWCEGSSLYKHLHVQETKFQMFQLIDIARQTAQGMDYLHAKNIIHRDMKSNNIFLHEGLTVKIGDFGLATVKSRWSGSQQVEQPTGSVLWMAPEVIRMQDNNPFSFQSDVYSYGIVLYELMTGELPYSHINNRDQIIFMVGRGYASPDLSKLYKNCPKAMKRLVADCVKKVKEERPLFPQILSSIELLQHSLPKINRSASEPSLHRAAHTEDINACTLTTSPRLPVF
Vascular endothelial growth factor receptor 2 (Homo sapiens), sequence (P35968 whole entry): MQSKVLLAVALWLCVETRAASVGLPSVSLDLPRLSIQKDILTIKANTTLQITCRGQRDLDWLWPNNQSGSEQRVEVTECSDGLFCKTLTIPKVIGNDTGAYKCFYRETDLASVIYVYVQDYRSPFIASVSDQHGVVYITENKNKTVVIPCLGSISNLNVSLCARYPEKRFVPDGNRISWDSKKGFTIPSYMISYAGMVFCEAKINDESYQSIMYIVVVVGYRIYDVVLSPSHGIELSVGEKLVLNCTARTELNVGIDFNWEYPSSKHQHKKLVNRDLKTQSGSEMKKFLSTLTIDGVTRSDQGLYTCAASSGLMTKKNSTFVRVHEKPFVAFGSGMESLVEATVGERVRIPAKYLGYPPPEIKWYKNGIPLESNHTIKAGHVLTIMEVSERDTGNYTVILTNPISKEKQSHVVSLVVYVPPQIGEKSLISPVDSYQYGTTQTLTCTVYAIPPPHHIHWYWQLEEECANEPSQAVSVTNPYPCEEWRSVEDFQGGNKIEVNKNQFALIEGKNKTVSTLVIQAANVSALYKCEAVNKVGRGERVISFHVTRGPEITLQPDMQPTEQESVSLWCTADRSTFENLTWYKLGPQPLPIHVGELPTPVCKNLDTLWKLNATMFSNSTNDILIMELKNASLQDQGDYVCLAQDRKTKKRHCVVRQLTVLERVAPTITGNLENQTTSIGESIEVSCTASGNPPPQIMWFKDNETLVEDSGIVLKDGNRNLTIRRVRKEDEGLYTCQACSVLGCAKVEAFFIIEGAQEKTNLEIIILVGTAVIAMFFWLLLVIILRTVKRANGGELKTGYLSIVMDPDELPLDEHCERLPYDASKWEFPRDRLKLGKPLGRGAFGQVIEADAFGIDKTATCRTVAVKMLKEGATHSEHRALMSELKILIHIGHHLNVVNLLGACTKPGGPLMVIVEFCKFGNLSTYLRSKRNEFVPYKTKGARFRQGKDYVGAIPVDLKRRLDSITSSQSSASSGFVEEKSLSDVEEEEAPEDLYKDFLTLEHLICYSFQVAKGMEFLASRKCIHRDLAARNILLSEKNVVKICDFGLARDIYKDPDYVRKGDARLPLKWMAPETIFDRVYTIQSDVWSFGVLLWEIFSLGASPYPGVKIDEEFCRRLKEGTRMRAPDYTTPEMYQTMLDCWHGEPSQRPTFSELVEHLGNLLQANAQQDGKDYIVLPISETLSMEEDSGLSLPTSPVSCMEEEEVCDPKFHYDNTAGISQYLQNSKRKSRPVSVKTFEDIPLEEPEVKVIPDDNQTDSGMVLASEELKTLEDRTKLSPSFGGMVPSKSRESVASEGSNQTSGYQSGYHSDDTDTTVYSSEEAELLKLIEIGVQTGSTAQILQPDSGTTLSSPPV
Casein kinase I isoform alpha (Homo sapiens), sequence (P48729 2-337 limits assumed): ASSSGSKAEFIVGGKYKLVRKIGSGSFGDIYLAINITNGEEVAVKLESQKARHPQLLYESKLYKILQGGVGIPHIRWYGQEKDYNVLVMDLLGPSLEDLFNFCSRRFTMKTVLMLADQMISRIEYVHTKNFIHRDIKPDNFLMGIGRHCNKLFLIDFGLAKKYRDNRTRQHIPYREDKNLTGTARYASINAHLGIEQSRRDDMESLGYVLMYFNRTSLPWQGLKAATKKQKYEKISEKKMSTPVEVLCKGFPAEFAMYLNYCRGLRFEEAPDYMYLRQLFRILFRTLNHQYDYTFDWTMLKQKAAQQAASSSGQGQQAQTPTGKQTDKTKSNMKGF

inhibition [1]: 72.2%
inhibition [2]: -4.8%
inhibition [3]: 45.4%
inhibition [4]: 17%
inhibition [5]: 69.8%
inhibition [6]: 83%
inhibition [7]: 4.3%
inhibition [8]: 99.3%
inhibition [9]: 42.4%
inhibition [10]: 25.8%
inhibition [11]: 82%
inhibition [12]: 13.3%
inhibition [13]: 13%
inhibition [14]: 38.3%
inhibition [15]: 57.3%
SMILES: CN1CCc2cc(-c3cnc4[nH]cc(C(=O)c5ccccc5Cl)c4c3)ccc2C1

inhibition [16]: 17.3%
inhibition [1]: -3.1%
inhibition [2]: 7.6%
inhibition [17]: -1%
inhibition [18]: -0.6%
inhibition [19]: -2.7%
inhibition [20]: 6.3%
inhibition [21]: 0.5%
inhibition [22]: 4.1%
inhibition [3]: -1.3%
inhibition [5]: 1%
inhibition [23]: 15.1%
inhibition [6]: -4.5%
inhibition [24]: 8.8%
inhibition [25]: 11.7%
inhibition [26]: -2.9%
inhibition [10]: 11.3%
inhibition [27]: 9.8%
inhibition [28]: -5%
inhibition [29]: 4%
inhibition [30]: 1.1%
inhibition [31]: -1.4%
inhibition [12]: 2.6%
inhibition [32]: 3.5%
inhibition [33]: -2.8%
inhibition [34]: 3.5%
inhibition [35]: 9.3%
inhibition [36]: -0.9%
inhibition [37]: -4.8%
inhibition [38]: 0.5%
inhibition [39]: 11.7%
SMILES: COCCNc1nc2ccc(C#CC3(O)CCCCC3)cc2n1-c1ccnc(N)n1

— ChEMBL document CHEMBL5678812, “Inhibitors of p21-activated kinases (PAKs)” (J Med Chem, 2015)
